Test results as given in US6902931B1 (priority 1998, dated 2005).

What was measured:
[1] = system: NIH/3T3 murine fibroblasts; experiment: Viability after vacuum drying and rehydration; type: cell-based; conditions: H5-porated; for protection of cells subjected to vacuum drying: 0.3 M sugar; for cells that successfully attached at three hours / survival rate: 0.3M sugar; for cells that successfully attached at three hours: vacuum dried 2 hours at ambient temperature, rehydrated; for survival rate: vacuum dried, adjusted for cell loss using control samples
Protocol: The efficacy of intracellular trehalose for vacuum dried fibroblasts was also tested. NIH/3T3 murine fibroblasts, prepared as in Example 1, were resuspended in phosphate buffered saline (PBS) solution and the cell density was counted. Cell density was then adjusted to 100,000 cells/ml by diluting with PBS and the sample was divided into three equal aliquots of 4.0 ml each. To each aliquot, 1.0 ml of 25 μg/ml H5 was added, reducing cell density to 8×10^4. The aliquots were incubated at room temperature for 15 minutes with occasional mixing.
In the first two aliquots, enough 1.0M stock solution of either trehalose or sucrose in PBS was added to obtain a final sugar concentration of 0.3M. In the third aliquot, an equivalent amount of PBS, without sugar, was added.
The three aliquots were dispersed in triplicate wells at 20 μl/well into four duplicate 12-well plates. Two of the twelve well plates were incubated at 37° C. and 10% CO2 as controls. The remaining two plates were vacuum dried for 2 hours at ambient temperature. After drying, the dried samples were rehydrated and the poration reversed with serum containing DMEM.
Viability assays were performed by counting attached cells at 3 hours, and cells that remained attached and divided during the next 24 hours. The experiments were repeated three times. […] Adjusting for cell loss due to handling, poration, etc. using the control samples, survival rates of 4% for the cells dried in trehalose and 3% for the cells dried in sucrose were obtained.

[2] = system: NIH/3T3 murine fibroblasts
in vitro = conditions: mouse, pH 7.4
[3] = system: NIH/3T3 murine fibroblasts; experiment: Clonogenic assay; type: cell-based; conditions: post-thaw; H5 and 0.4 M trehalose; from approximately 200±12 plated cells, one week
Protocol: For each condition, approximately 200 of the cells that had plated in 3 hours were replated in a […] for one week. To obtain 200 fibroblasts, cells were diluted to 2×10^5 cells/ml, and 1 μl of cell solution was introduced into a P60 petri dish (Falcon) containing 12 ml of DMEM with BCS. After one week, cells were fixed by a 0.5% glutaraldehyde wash and stained by Rhodamine B (Sigma) to enhance colony visibility. The number of colonies formed was determined by visual inspection.

3T3 fibroblasts = experiment: Volumetric response of porated cells in hypertonic sugar solution (sugar uptake); type: cell-based, murine
Protocol: Sugar may be added to the cell suspension in an HBS solution to the final desired concentration. Porated cells may be incubated in the sugar containing solution for 45 minutes. […] Of course the length of time required for sugar uptake may vary with the type of cell and the level of cell poration. Sugar uptake may be measured by both the uptake of radiolableled sugar into porated cells as well as by the volumetric response of porated cells placed in a hypertonic sugar solution, yielding statistically correlative results.
Following poration, 0-1.0 M trehalose (final concentration) in HBS solution (Sigma) was added to the cell suspension, as indicated in FIG. 4. To allow for trehalose uptake, porated cells were incubated in the solution for 45 min. […] [Russo et al., “Reversible permeabilization of plasma membranes with an engineered switchable pore,” Nature Biotech. 15, 278-282 (1997).] This uptake was measured by both the uptake of radiolableled sugar into porated cells as well as by the volumetric response of porated cells placed in a hypertonic sugar solution, yielding statistically correlative results. By repeating the volumetric experiments using hypertonic trehalose solutions and 25 μg/ml of porating agent, volumetric equilibration over 90% over a 45 min interval was achieved, indicating the equilibration of intracellular trehalose concentration with that of the suspending solution.

[4] = system: NIH/3T3 murine fibroblasts; conditions: mouse, pH 7.4

SMILES	protection of cells subjected to vacuum drying [1]	cells that successfully attached at three hours [1] [cells]	survival rate [1] [%]	additional loss of porated cells (18 hours growth) [2] [%]	fibroblasts withstanding osmotic shock (18 hours growth) [2]	higher than all control data to which trehalose was not added [2]	loss of population between 1 hour and 3h / 18 hours [2]	loss of viability or function [2]	population loss [2]	viability (in vitro) [%]	colonies formed [3] [colonies]	trehalose concentration at which fibroblasts reach minimum volume (3T3 fibroblasts; data not shown)	volumetric equilibration (3T3 fibroblasts; hypertonic trehalose solutions, 25 μg/ml porating agent, 45 min interval)	viability and function after 1 hour [4]
OC[C@H]1O[C@@](CO)(O[C@H]2O[C@H](CO)[C@@H](O)[C@H](O)[C@H]2O)[C@@H](O)[C@@H]1O [sucrose]	effective in protecting cells subjected to vacuum drying	36±3	3	–	–	–	–	–	–	–	–	–	–	–
OC[C@H]1O[C@H](O[C@H]2O[C@H](CO)[C@@H](O)[C@H](O)[C@H]2O)[C@H](O)[C@@H](O)[C@@H]1O [Trehalose, trehalose]	effective in protecting cells subjected to vacuum drying	48±3	4	10	over 95%	70-80%	over 60%	did not demonstrate a significant loss of viability	loss of half of their populations	10	211.6±5.2	about 0.4 M	over 90%	70-80%
